Test results: patent US8044073B2, “Aminobenzimidazoles and benzimidazoles as inhibitors of respiratory syncytial virus replication” (Tibotec Pharmaceuticals, priority 2003, dated 2011)

system: Respiratory Syncytial Virus; assay: In vitro screening for activity against RSV (tetrazolium-based colorimetric assay, protection against viral cytopathology); format: cell-based; details: Table 1; RSV in HeLa cells, MTT, seven days after infection; pEC50 = -log of EC50 in molar units
From the text: The percent protection against cytopathology caused by viruses (antiviral activity or EC50) achieved by tested compounds and their cytotoxicity (CC50) are both calculated from dose-response curves. The selectivity of the antiviral effect is represented by the selectivity index (SI), calculated by dividing the CC50 (cytotoxic dose for 50% of the cells) by the EC50 (antiviral activity for 50% of the cells). The tables in the above experimental part list the category to which each of the prepared compounds belong: Compounds belonging to activity category “A” have a pEC50 (−log of EC50 when expressed in molar units) equal to or more than 7. Compounds belonging to activity category “B” have a pEC50 value between 6 and 7.
Automated tetrazolium-based colorimetric assays were used for determination of EC50 and CC50 of test compounds. Flat-bottom, 96-well plastic microtiter trays were filled with 180 μl of Eagle's Basal Medium, supplemented with 5% FCS (0% for FLU) and 20 mM Hepes buffer. Subsequently, stock solutions (7.8× final test concentration) of compounds were added in 45 μl volumes to a series of triplicate wells so as to allow simultaneous evaluation of their effects on virus- and mock-infected cells. Five five-fold dilutions were made directly in the microtiter trays using a robot system. Untreated virus controls, and HeLa cell controls were included in each test. Approximately 100 TCID50 of Respiratory Syncytial Virus was added to two of the three rows in a volume of 50 μl. The same volume of medium was added to the third row to measure the cytotoxicity of the compounds at the same concentrations as those used to measure the antiviral activity. After two hours of incubation, a suspension (4×10^5 cells/ml) of HeLa cells was added to all wells in a volume of 50 μl. The cultures were incubated at 37° C. in a 5% CO2 atmosphere. Seven days after infection the cytotoxicity and the antiviral activity was examined spectrophotometrically. To each well of the microtiter tray, 25 μl of a solution of MTT (3-(4,5-dimethylthiazol-2-yl)-2,5-diphenyltetrazolium bromide) was added. The trays were further incubated at 37° C. for 2 hours, after which the medium was removed from each cup. Solubilization of the formazan crystals was achieved by adding 100 μl 2-propanol. Complete dissolution of the formazan crystals were obtained after the trays have been placed on a plate shaker for 10 min. Finally, the absorbances were read in an eight-channel computer-controlled photometer (Multiskan MCC, Flow Laboratories) at two wavelengths (540 and 690 nm). The absorbance measured at 690 nm was automatically subtracted from the absorbance at 540 nm, so as to eliminate the effects of non-specific absorption.
The percent protection against cytopathology caused by viruses (antiviral activity or EC50) achieved by tested compounds and their cytotoxicity (CC50) were both calculated from dose-response curves. The selectivity of the antiviral effect is represented by the selectivity index (SI), calculated by dividing the CC50 (cytotoxic dose for 50% of the cells) by the EC50 (antiviral activity for 50% of the cells).

| SMILES | Activity |
| --- | --- |
| Cc1ccc(O)c(Cn2c(N)nc3ccc(CNc4ccccc4C(C)C)cc32)n1 [Compound 32] | 7.8 |
| C#Cc1ccc(CCO)c(NCc2ccc3nc(N)n(Cc4nc(C)ccc4O)c3c2)c1 [Compound 92] | 10.4 |
| CCc1cccc(CC)c1NCc1ccc2nc(N)n(Cc3nc(C)ccc3O)c2c1 [Compound 17] | 8.1 |
| Cc1ccc(OCCO)c(NCc2ccc3nc(N)n(Cc4nc(C)ccc4O)c3c2)c1 [Compound 91] | 10.5 |
| CC(=O)c1ccccc1NCc1ccc2nc(N)n(Cc3nc(C)ccc3O)c2c1 [Compound 69] | 7.2 |
| Cc1ccc(O)c(Cn2c(N)nc3ccc(CNc4cccc(C)c4CO)cc32)n1 [Compound 87] | 8.2 |
| Cc1ccc(O)c(Cn2c(N)nc3ccc(CNc4cc(F)cc(C(F)(F)F)c4)cc32)n1 [Compound 45] | 7.6 |
| Cc1ccc(O)c(Cn2c(N)nc3ccc(CNc4cccc(SC(F)(F)F)c4)cc32)n1 [Compound 30] | 7.8 |
| Cc1ccc(O)c(Cn2c(N)nc3ccc(CNc4ccc5c(c4)OCCO5)cc32)n1 [Compound 43] | 7.6 |
| Cc1ccc(O)c(Cn2c(N)nc3ccc(CNc4cccc(Cl)c4)cc32)n1 [Compound 5] | 8.5 |
| Cc1ccc(O)c(Cn2c(N)nc3ccc(CNc4ccccc4C#N)cc32)n1 [Compound 25] | 7.9 |
| CCc1cc(Br)ccc1NCc1ccc2nc(N)n(Cc3nc(C)ccc3O)c2c1 [Compound 52] | 7.5 |
| Cc1ccc(O)c(Cn2c(N)nc3ccc(CNc4ccccc4F)cc32)n1 [Compound 40] | 7.7 |
| CC(=O)O.Cc1ccc(O)c(Cn2c(N)nc3ccc(CNc4ccccc4-c4ccccc4)cc32)n1 [Compound 58] | 7.4 |
| Cc1cccc(NCc2ccc3nc(N)n(Cc4nc(C)ccc4O)c3c2)c1 [Compound 1, 2-[2-Amino-6-(mtolylamino-methyl)-benzoimidazol-1-ylmethyl]-6-methyl-pyridin-3-ol] | 8.6 |
| Cc1ccc(O)c(Cn2c(N)nc3ccc(CNc4cc(Br)cc(C(F)(F)F)c4)cc32)n1 [Compound 37] | 7.7 |
| Cc1ccc(O)c(Cn2c(N)nc3ccc(CNc4cccc(S(=O)(=O)CCO)c4)cc32)n1 [Compound 33] | 7.8 |
| Cc1ccc(O)c(Cn2c(N)nc3ccc(CNc4cccc(NS(C)(=O)=O)c4)cc32)n1 [Compound 27] | 7.9 |

same assay, conditions: Table 2; RSV in HeLa cells, MTT, seven days after infection; pEC50 = -log of EC50 in molar units

| SMILES | Activity |
| --- | --- |
| Cc1ccc(O)c(Cn2c(N)nc3cc(CNc4cccc5cccnc45)ccc32)n1 [Compound 123] | <4.0 |
| Cc1ccc(O)c(Cn2c(N)nc3cc(CNc4cccc(Br)c4)ccc32)n1 [Compound 126] | <4.0 |
| Cc1ccc(O)c(Cn2c(N)nc3cc(CNc4cccc(C)c4C)ccc32)n1 [Compound 119] | 6.4 |

same assay, conditions: Table 3; RSV in HeLa cells, MTT, seven days after infection; pEC50 = -log of EC50 in molar units

| SMILES | Activity |
| --- | --- |
| Cc1cccc(N(CCOCCO)Cc2ccc3nc(N)n(Cc4nc(C)ccc4O)c3c2)c1.Cl [Compound 171] | 8.9 |

same assay, conditions: Table 4; RSV in HeLa cells, MTT, seven days after infection; pEC50 = -log of EC50 in molar units

| SMILES | Activity |
| --- | --- |
| Cc1ccc(CCCO)c(NCc2ccc3ncn(Cc4nc(C)ccc4O)c3c2)c1 [Compound 191] | 7.9 |
| Cc1ccc(CCO)c(NCc2ccc3ncn(Cc4nc(C)ccc4O)c3c2)c1 [Compound 192] | 7.8 |

same assay, conditions: Table 5a; RSV in HeLa cells, MTT, seven days after infection; pEC50 = -log of EC50 in molar units

| SMILES | Activity |
| --- | --- |
| Cc1ccc(O)c(Cn2c(N)nc3ccc(CCC#N)cc32)n1 [Compound 198] | 6.8 |
| Cc1cc(C)c2nc(N)n(Cc3nc(C)ccc3O)c2c1 [Compound 199] | 6.8 |

same assay, conditions: Table 5b; RSV in HeLa cells, MTT, seven days after infection; pEC50 = -log of EC50 in molar units

| SMILES | Activity |
| --- | --- |
| Cc1ccc(CCCO)c(NCc2ccc3nc(N)n(Cc4cccc(Br)n4)c3c2)c1 [Compound 212] | 7.5 |
| COc1ccc(C)nc1Cn1c(N)nc2ccc(CNc3cc(C)ccc3CCCO)cc21 [Compound 209] | 7.8 |
| Cc1cccc(N(CCCO)Cc2ccc3nc(N)n(Cc4cccc5cccnc45)c3c2)c1 [Compound 225] | <4 |
| Cc1ccc(CCCO)c(NCc2ccc3nc(N)n(Cc4cccc5cccnc45)c3c2)c1 [Compound 214] | 7.3 |
| Cc1ccc(CCCO)c(NCc2ccc3nc(N)n(Cc4ccc(F)cc4)c3c2)c1 [Compound 219] | 5.3 |

same assay, conditions: Table 6; numeric activity values, pEC50 (−log of EC50 in molar units)

| SMILES | Activity |
| --- | --- |
| CC(=O)c1cccc(NCc2ccc3c(c2)ncn3Cc2nc(C)ccc2O)c1 [Compound 286] | <4.0 |
| Cc1ccc(O)c(Cn2cnc3cc(CNCCc4ccccc4)ccc32)n1 [Compound 253] | <4.0 |
| Cc1ccc(O)c(Cn2cnc3cc(CNc4cccc(Br)c4)ccc32)n1 [Compound 287] | <4.0 |
| Cc1ccc(O)c(Cn2cnc3ccc(CNc4ccccc4)cc32)n1 [Compound 285] | <4.0 |
| CCc1cccc(NCc2ccc3c(c2)ncn3Cc2nc(C)ccc2O)c1 [Compound 294] | <4.0 |
| Cc1ccc(O)c(Cn2cnc3cc(CO)ccc32)n1 [Compound 246] | <4.0 |
| Cc1ccc(O)c(Cn2cnc3cc(CNc4cccc(Cl)c4)ccc32)n1 [Compound 288] | <4.0 |
| Cc1ccc(O)c(Cn2cnc3ccc(NC(=O)CCc4ccccc4)cc32)n1 [Compound 277] | <4.0 |
| Cc1ccc(O)c(Cn2cnc3cc(NC(=O)c4ccccc4)ccc32)n1 [Compound 266] | <4.0 |
| Cc1ccc(O)c(Cn2cnc3cc(NC(=O)C4CCNCC4)ccc32)n1 [Compound 267] | <4.0 |
| COCCCNCc1ccc2c(c1)ncn2Cc1nc(C)ccc1O [Compound 260] | <4.0 |

same assay, conditions: human respiratory syncytial virus, 168 h; Table 1; RSV in HeLa cells, MTT, seven days after infection; pEC50 = -log of EC50 in molar units; read-out: Activity (converted)

| SMILES | EC50 [µM] |
| --- | --- |
| CC(=O)O.Cc1ccc(O)c(Cn2c(N)nc3ccc(CNc4ccccc4C)cc32)n1 [Compound 8, 2-[2-Amino-6-(o-tolylamino-methyl)-benzoimidazol-1-ylmethyl]-6-methyl-pyridin-3-ol acetic acid salt] | 0.00316 |

same assay, conditions: human respiratory syncytial virus, 168 h; Table 3; RSV in HeLa cells, MTT, seven days after infection; pEC50 = -log of EC50 in molar units; read-out: Activity (converted)

| SMILES | EC50 [µM] |
| --- | --- |
| Cc1ccc(O)c(Cn2c(N)nc3ccc(CN(CCC(N)=O)c4cccc(Br)c4)cc32)n1 [Compound 137, 3-[[2-Amino-3-(3-hydroxy-6-methyl-pyridin-2-ylmethyl)-3H-benzoimidazol-5-ylmethyl]-(3-bromo-phenyl)-amino]-propionamide] | 0.000251 |
| Cc1cccc(N(CCC(=O)O)Cc2ccc3nc(N)n(Cc4nc(C)ccc4O)c3c2)c1 [Compound 161, 3-{[2-amino-3-(3-hydroxy-6-methyl-pyridin-2-ylmethyl)-3H-benzoimidazol-5-ylmethyl]-m-tolyl-amino}-propionic acid] | 0.00794 |

same assay, conditions: human respiratory syncytial virus, 168 h; Table 5a; RSV in HeLa cells, MTT, seven days after infection; pEC50 = -log of EC50 in molar units; read-out: Activity (converted)

| SMILES | EC50 [µM] |
| --- | --- |
| Cc1cccc(NCc2cc(C)c3nc(N)n(Cc4nc(C)ccc4O)c3c2)c1 [Compound 194, 2-[2-amino-4-methyl-6-(m-tolylamino-methyl)-benzoimidazol-1-ylmethyl]-6-methyl-pyridin-3-ol] | 0.0126 |

same assay, conditions: human respiratory syncytial virus, 168 h; Table 5b; RSV in HeLa cells, MTT, seven days after infection; pEC50 = -log of EC50 in molar units; read-out: Activity (converted)

| SMILES | EC50 [µM] |
| --- | --- |
| Nc1nc2cc(CO)ccc2n1Cc1cccc2cccnc12 [Compound 224, (2-amino-1-quinolin-8-ylmethyl-1H-benzoimidazol-5-yl)-methanol] | > 100 |

same assay, conditions: human respiratory syncytial virus, 168 h; table of compound 128 (scheme E); RSV in HeLa cells, MTT, seven days after infection; read-out: Activity category (converted)

| SMILES | EC50 [µM] |
| --- | --- |
| Cc1ccc(CCCO)c(NCc2ccc3nc(N)n(Cc4nc(C)ccc4OCc4ccccc4)c3c2)c1 [Compound 128] | 0.126 |

same assay, conditions: human respiratory syncytial virus; Table 6; numeric activity values, pEC50 (−log of EC50 in molar units); read-out: Activity (converted)

| SMILES | EC50 [µM] |
| --- | --- |
| Cc1ccc(O)c(Cn2cnc3ccc(N)cc32)n1 [Compound 261] | > 100 |

system: not given; assay: not given; details: not given

| SMILES | melting point [°C] |
| --- | --- |
| Cc1ccc(O)c(Cn2cnc3ccc(N)cc32)n1 [Compound 261] | > 250 |
| CC(=O)O.Cc1ccc(O)c(Cn2c(N)nc3ccc(CNc4ccccc4C)cc32)n1 [Compound 8, 2-[2-Amino-6-(o-tolylamino-methyl)-benzoimidazol-1-ylmethyl]-6-methyl-pyridin-3-ol acetic acid salt] | 120 |
| Nc1nc2cc(CO)ccc2n1Cc1cccc2cccnc12 [Compound 224, (2-amino-1-quinolin-8-ylmethyl-1H-benzoimidazol-5-yl)-methanol] | > 260 |
| Cc1cccc(NCc2cc(C)c3nc(N)n(Cc4nc(C)ccc4O)c3c2)c1 [Compound 194, 2-[2-amino-4-methyl-6-(m-tolylamino-methyl)-benzoimidazol-1-ylmethyl]-6-methyl-pyridin-3-ol] | 252 |
| Cc1ccc(CCCO)c(NCc2ccc3nc(N)n(Cc4nc(C)ccc4OCc4ccccc4)c3c2)c1 [Compound 128] | 129 |
| Cc1ccc(O)c(Cn2c(N)nc3ccc(CN(CCC(N)=O)c4cccc(Br)c4)cc32)n1 [Compound 137, 3-[[2-Amino-3-(3-hydroxy-6-methyl-pyridin-2-ylmethyl)-3H-benzoimidazol-5-ylmethyl]-(3-bromo-phenyl)-amino]-propionamide] | 245 |
| Cc1cccc(N(CCC(=O)O)Cc2ccc3nc(N)n(Cc4nc(C)ccc4O)c3c2)c1 [Compound 161, 3-{[2-amino-3-(3-hydroxy-6-methyl-pyridin-2-ylmethyl)-3H-benzoimidazol-5-ylmethyl]-m-tolyl-amino}-propionic acid] | 165 |
